Active and inactive are the calls of the source. The calls are words filed in the database; no cut-off is given here.
What was measured:
A549 [1] = assay: Inhibition of colony formation in human A549 cells assessed as suppression of colony formation at 1 nM replaced with fresh medium for every 72 hrs and measured for 15 days by crystal violet staining based assay; format: functional, cell-based; conditions: time 15.0 day
ASPC1 = assay: Antiproliferative activity against human ASPC1 cells assessed as inhibition of cell growth measured after 48 hrs by MTT assay; format: functional, cell-based
BXPC-3 = assay: Antiproliferative activity against human BXPC-3 cells assessed as inhibition of cell growth measured after 48 hrs by MTT assay; format: functional, cell-based; conditions: Homo sapiens, BXPC-3, 48 h
PANC-1 = assay: Antiproliferative activity against human PANC-1 cells assessed as inhibition of cell growth measured after 48 hrs by MTT assay; format: functional, cell-based; conditions: Homo sapiens, PANC-1, 48 h
MCF7 = assay: Antiproliferative activity against human MCF7 cells assessed as inhibition of cell growth measured after 48 hrs by MTT assay; format: functional, cell-based; conditions: MCF7, 48 h
NCI-H460 = assay: Antiproliferative activity against human NCI-H460 cells assessed as inhibition of cell growth measured after 48 hrs by MTT assay; format: functional, cell-based; conditions: Homo sapiens, NCI-H460, 48 h
HepG2 = assay: Antiproliferative activity against human HepG2 cells assessed as inhibition of cell growth measured after 48 hrs by MTT assay; format: functional, cell-based; conditions: Homo sapiens, HepG2, 48 h
NCI-H1299 = assay: Antiproliferative activity against human NCI-H1299 cells assessed as inhibition of cell growth measured after 48 hrs by MTT assay; format: functional, cell-based; conditions: Homo sapiens, NCI-H1299, 48 h
143B = assay: Antiproliferative activity against human 143B cells assessed as inhibition of cell growth measured after 48 hrs by MTT assay; format: functional, cell-based; conditions: Homo sapiens, 143B, 48 h
HeLa = assay: Antiproliferative activity against human HeLa cells assessed as inhibition of cell growth measured after 48 hrs by MTT assay; format: functional, cell-based; conditions: Homo sapiens, HeLa, 48 h
A549 [2] = assay: Antitumor activity against human A549 cells xenografted in BALB/c nude mouse assessed as inhibition of tumor growth at 2 mg/kg, sc administered every 2 days for 14 days; format: functional, organism-based; conditions: time 14.0 day
A549 [3] = assay: Antitumor activity against human A549 cells xenografted in BALB/c nude mouse assessed as increase in apoptosis at 2 mg/kg measured after 14 days by tunel staining based analysis; format: functional, organism-based; conditions: time 14.0 day
A549 [4] = assay: Antitumor activity against human A549 cells xenografted in BALB/c nude mouse assessed as appearance of various size of tumor necrosis at 2 mg/kg measured after 14 days by H and E staining based analysis; format: functional, organism-based; conditions: time 14.0 day
A549 [5] = assay: Antitumor activity against human A549 cells xenografted in BALB/c nude mouse assessed as decrease in tumor cell proliferation at 2 mg/kg measured after 14 days by Ki67 staining based analysis; format: functional, organism-based; conditions: time 14.0 day
A549 [6] = assay: Antitumor activity against human A549 cells xenografted in BALB/c nude mouse assessed as decrease in tumor cell proliferation at 2 mg/kg measured after 14 days by PCNA staining based analysis; format: functional, organism-based; conditions: time 14.0 day
A549 [7] = assay: Induction of apoptosis in human A549 cells assessed as viable cells at 0.04 uM measured after 48 hrs by annexin V and PI staining based flow cytometry analysis (reference value: 93.3%); format: functional
A549 [8] = assay: Induction of apoptosis in human A549 cells assessed as viable cells at 0.1 uM measured after 48 hrs by annexin V and PI staining based flow cytometry analysis (reference value: 93.3%); format: functional
A549 [9] = assay: Induction of apoptosis in human A549 cells assessed as viable cells at 0.25 uM measured after 48 hrs by annexin V and PI staining based flow cytometry analysis (reference value: 93.3%); format: functional
A549 [10] = assay: Induction of apoptosis in human A549 cells assessed as early apoptotic cells at 0.04 uM measured after 48 hrs by annexin V and PI staining based flow cytometry analysis (reference value: 0.71%); format: functional
A549 [11] = assay: Induction of apoptosis in human A549 cells assessed as early apoptotic cells at 0.1 uM measured after 48 hrs by annexin V and PI staining based flow cytometry analysis (reference value: 0.71%); format: functional
A549 [12] = assay: Induction of apoptosis in human A549 cells assessed as early apoptotic cells at 0.25 uM measured after 48 hrs by annexin V and PI staining based flow cytometry analysis (reference value: 0.71%); format: functional
A549 [13] = assay: Induction of apoptosis in human A549 cells assessed as late apoptotic cells at 0.04 uM measured after 48 hrs by annexin V and PI staining based flow cytometry analysis (reference value: 4.70%); format: functional
A549 [14] = assay: Induction of apoptosis in human A549 cells assessed as late apoptotic cells at 0.1 uM measured after 48 hrs by annexin V and PI staining based flow cytometry analysis (reference value: 4.70%); format: functional
A549 [15] = assay: Induction of apoptosis in human A549 cells assessed as late apoptotic cells at 0.25 uM measured after 48 hrs by annexin V and PI staining based flow cytometry analysis (reference value: 4.70%); format: functional
A549 [16] = assay: Induction of apoptosis in human A549 cells assessed as necrotic cells at 0.04 uM measured after 48 hrs by annexin V and PI staining based flow cytometry analysis (reference value: 1.47%); format: functional
A549 [17] = assay: Induction of apoptosis in human A549 cells assessed as necrotic cells at 0.1 uM measured after 48 hrs by annexin V and PI staining based flow cytometry analysis (reference value: 1.47%); format: functional
A549 [18] = assay: Induction of apoptosis in human A549 cells assessed as necrotic cells at 0.25 uM measured after 48 hrs by annexin V and PI staining based flow cytometry analysis (reference value: 1.47%); format: functional
A549 [19] = assay: cells; conditions: Homo sapiens, A549, 48 h
Description: Antiproliferative activity against human A549 cells assessed as inhibition of cell growth measured after 48 hrs by MTT assay

TE-1 [20] = assay: cells; conditions: Homo sapiens, TE-1, 48 h
Description: (§1) Antiproliferative activity against human TE-1 cells assessed as inhibition of cell growth measured after 48 hrs by MTT assay

5637 [21] = assay: cells; conditions: Homo sapiens, 5637, 48 h
Description: (§2) Antiproliferative activity against human 5637 cells assessed as inhibition of cell growth measured after 48 hrs by MTT assay

A549 [22] = assay: Induction of autophagy in human A549 cells assessed as increase in LC3II amount by Western blot analysis; format: functional, cell-based; conditions: dose 0.04-0.1 µM
A549 [23] = assay: Induction of oxidative stress in human A549 cells assessed as upregulation of ROS level by DCFH-DA staining based analysis; format: functional, cell-based; conditions: dose 0.04-0.1 µM
A549 [24] = assay: Induction of DNA damage in human A549 cells assessed as gammaH2AX accumulation at 0.04 uM by Western blot analysis; format: functional, cell-based
A549 [25] = assay: Induction of DNA damage in human A549 cells measured after 36 hrs by comet assay; format: functional, cell-based; conditions: dose 0.04-0.1 µM
A549 [26] = assay: Induction of DNA damage in human A549 cells assessed as increase in DNA percentage in tail at low concentration measured after 36 hrs by comet assay; format: functional, cell-based
A549 [27] = assay: Induction of apoptosis in human A549 cells assessed as increase in caspase-3 cleavage at low concentration measured after 48 hrs by Western blot analysis; format: functional, cell-based
A549 [28] = assay: Induction of apoptosis in human A549 cells assessed as inhibition of Bcl-2 level measured after 48 hrs by Western blot analysis; format: functional, cell-based; conditions: dose 0.01-0.1 µM
A549 [29] = assay: Induction of apoptosis in human A549 cells assessed as upregulation of bax level measured after 48 hrs by Western blot analysis; format: functional, cell-based; conditions: dose 0.01-0.1 µM
A549 [30] = assay: Induction of autophagy in human A549 cells assessed as formation of GFP-LC3 punctate by confocal fluorescence microscopy analysis; format: functional, cell-based; conditions: dose 0.01-0.1 µM
A549 [31] = assay: Inhibition of survivin mRNA expression in human A549 cells by Q-PCR analysis; format: functional, cell-based; conditions: dose 0.01-0.1 µM
A549 [32] = assay: Inhibition of survivin protein expression in human A549 cells by Western blot analysis; format: functional, cell-based; conditions: dose 0.004 µM
A549 [33] = assay: Induction of apoptosis in survivin silenced human A549 cells assessed as decrease in apoptotic rate at 0.04 uM measured after 48 hrs by AnnexinV-FITC/PI staining based flow cytometry; format: functional, cell-based
[34] = biological target: Baculoviral IAP repeat-containing protein 5 (Homo sapiens) (UniProt O15392); assay: Inhibition of Survivin (unknown origin) expressed in HEK293T cells in presence of ILF3/NF110 by Dual luciferase reporter assay; format: cell-based; conditions: dose <= 2000.0 nM
A549 [35] = assay: Antitumor activity against human A549 cells xenografted in BALB/c nude mouse assessed as appearance of tumor necrosis at 4 mg/kg measured after 14 days by H and E staining based analysis; format: functional, organism-based; conditions: time 14.0 day
A549 [36] = assay: Antitumor activity against human A549 cells xenografted in BALB/c nude mouse assessed as increase in apoptosis at 2 to 4 mg/kg measured after 14 days by tunel staining based analysis; format: functional, organism-based; conditions: dose 2-4 mg/kg, time 14.0 day
A549 [37] = assay: Antitumor activity against human A549 cells xenografted in BALB/c nude mouse assessed as decrease in tumor cell proliferation at 2 to 4 mg/kg measured after 14 days by Ki67 staining based analysis; format: functional, organism-based; conditions: dose 2-4 mg/kg, time 14.0 day
A549 [38] = assay: Antitumor activity against human A549 cells xenografted in BALB/c nude mouse assessed as decrease in tumor cell proliferation at 2 to 4 mg/kg measured after 14 days by PCNA staining based analysis; format: functional, organism-based; conditions: dose 2-4 mg/kg, time 14.0 day
[39] = Antiproliferative activity against mouse L929 cells assessed as inhibition of cell growth measured after 48 hrs by MTT assay; format: toxicity, cell-based; conditions: mouse, L929 cells
[40] = Antiproliferative activity against mouse NIH3T3 cells assessed as inhibition of cell growth measured after 48 hrs by MTT assay; format: toxicity, cell-based; conditions: mouse, NIH3T3 cells
[41] = Antiproliferative activity against human HUVEC cells assessed as inhibition of cell growth measured after 48 hrs by MTT assay; format: toxicity, cell-based; conditions: human, HUVEC cells
[42] = Antiproliferative activity against human MRC5 cells assessed as inhibition of cell growth measured after 48 hrs by MTT assay; format: toxicity, cell-based; conditions: human, MRC5 cells
TE-1 [43] = tested on: TE-1
Description: as §1

5637 [44] = tested on: 5637
Description: as §2

[45] = Homo sapiens, A549, 48 h, read-out: Activity

Baculoviral IAP repeat-containing protein 5 (Homo sapiens), sequence (O15392 whole entry): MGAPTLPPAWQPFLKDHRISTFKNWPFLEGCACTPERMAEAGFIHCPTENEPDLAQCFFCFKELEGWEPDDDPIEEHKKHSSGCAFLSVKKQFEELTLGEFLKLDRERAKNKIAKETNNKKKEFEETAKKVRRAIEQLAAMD

Compound | inhibition (A549 [1]) | IC50 (BXPC-3) | IC50 (PANC-1) | IC50 (MCF7) | IC50 (NCI-H460) | IC50 (HepG2) | IC50 (NCI-H1299) | IC50 (143B) | IC50 (HeLa) | Activity (A549 [2]) | Activity (A549 [3]) | Activity (A549 [4]) | Activity (A549 [10]) | Activity (A549 [11]) | Activity (A549 [12]) | Activity (A549 [13]) | Activity (A549 [14]) | Activity (A549 [15]) | Activity (A549 [16]) | Activity (A549 [17]) | further results
COCC[n+]1c2c(n(Cc3cnccn3)c1C)C(=O)c1ccccc1C2=O.[Br-] [SEPANTRONIUM BROMIDE] | Active | 90 nM | 10 nM | 10 nM | 100 nM | 3720 nM | 120 nM | 320 nM | 1800 nM | inactive | Active | Active | 1.65% | 1.54% | 0.57% | 51.1% | 76.4% | 86.9% | 24.2% | 11.7% | IC50 (ASPC1; Homo sapiens, ASPC1, 48 h): 510 nM; Activity (A549 [5]): Active; Activity (A549 [6]): Active; viability at 0.04 µM (A549 [7]; [45]): 22.2%; viability at 0.1 µM (A549 [8]; [45]): 11.3%; viability at 0.25 µM (A549 [9]; [45]): 4.72%; Activity (A549 [18]): 7.79%; IC50 (A549 [19]): 10 nM; IC50 (TE-1 [20]): 8 nM; IC50 5637 [21]: 110 nM
Cn1c[n+](C)c2c1C(=O)c1cc3ccccc3cc1C2=O | Active | – | – | – | – | – | – | – | – | Active | Active | Active | – | – | – | – | – | – | – | – | Activity (A549 [22]): Dose-Dependent Effect; Activity (A549 [23]): Active; Activity (A549 [24]): Active; Activity (A549 [25]): Dose-Dependent Effect; Activity (A549 [26]): Active; Activity (A549 [27]): Active; Activity (A549 [28]): Dose-Dependent Effect; Activity (A549 [29]): Dose-Dependent Effect; Activity (A549 [30]): Dose-Dependent Effect; inhibition (A549 [31]): Active; inhibition (A549 [32]): Active; Activity (A549 [33]): Active; inhibition [34]: Dose-Dependent Effect; Activity (A549 [35]): Active; Activity (A549 [36]): Active; Activity (A549 [37]): Active; Activity (A549 [38]): Active
Cn1c[n+](C)c2c1C(=O)c1cc3ccccc3cc1C2=O.[Br-] | – | 110 nM | 90 nM | 60 nM | 160 nM | 360 nM | 540 nM | 410 nM | 1860 nM | – | – | – | 1.6% | 0.55% | 0.22% | 58.5% | 79.7% | 89.2% | 13.9% | 11.5% | IC50 at 48 h [39]: 13600 nM; IC50 (ASPC1; aspc1): 110 nM; IC50 at 48 h [40]: 14200 nM; IC50 at 48 h [41]: 10500 nM; IC50 at 48 h [42]: 3980 nM; Activity (A549 [7]): 25.3%; Activity (A549 [8]): 8.24%; Activity (A549 [9]): 2.43%; Activity (A549 [18]): 7.92%; IC50 (TE-1 [43]): 30 nM; IC50 5637 [44]: 110 nM; IC50 (A549 [19]): 10 nM
